Test results reported in the supplement of paper PMC5412046.
Structures can show the parent of a compound that is named as a salt.

System: SB.mhdgc-1
Test: AC50 for growth inhibition (viability) (log10 M); higher = less potent
Settings: SB.mhdgc-1 (hereditary c.1380delA CDH1 gastric cancer)
In short: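 Gastric cancer cells from hereditary or sporadic patients, 500 per 1536 well, were exposed to compound for 48 h over 11 threefold dilutions from a final 46 μM. CellTiter-Glo luminescence, read on a ViewLux, measured viability, which was normalised to DMSO. The log half-maximal activity concentration came from four-parameter fits, and only high-quality curve classes were kept.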

Compound | AC50 for growth inhibition (log10 M)
CC1=C(/C=C/C(C)=C/C=C/C(C)=C/C=C/C=C(C)/C=C/C=C(C)/C=C/C2=C(C)CCCC2(C)C)C(C)(C)CCC1 [beta-Carotene] | -5.13
O=[S+]([O-])(NCCNC/C=C/c1ccc(Br)cc1)c1cccc2cnccc12 [H-89] | -4.88
COc1cccc2cc(-c3nc(C4CCC(C(=O)O)CC4)n4ncnc(N)c34)[nH]c12 (configuration not stated) [OSI-027] | -7.58
O=[S+]([O-])(O)c1ccc2cc(/N=N/c3cc([S+](=O)([O-])O)c4cccnc4c3O)ccc2c1 | -4.68
NC/1=N/[C@]2(COC[C@H]2CS1)C3=CC(=CC=C3F)NC(=O)C4=NC=C(F)C=C4 | -5.93
COc1ccc(-c2ccc3ncc4c(c3c2)n(-c2ccc(N3CCNCC3)c(C(F)(F)F)c2)c(=O)n4C)cn1 [NVP-BGT226] | -6.58
Nc1nccc(-c2ccc3noc(-c4ccc(Cl)cc4)c3c2)n1 [Pim 1 inhibitor 2] | -5.48
CC1=CC=CC=C1N2\C(=N/C3=C(C(=CC=C3)C)C2=O)C[N]4C=NC5=C4N=CN=C5N | -5.43
CCN(CC)CCOc1ccc(Cc2ccccc2)cc1 [Tesmilifene hydrochloride] | -4.48
C[N]1C=C(C=N1)C2=C3\C=N/NC(=O)C4=C3C(=CC(=C4)NC(=O)[C@H](N)C5CCCCC5)[NH]2 | -6.08
CN1CCN(CCOc2cc(OC3CCOCC3)c3c(Nc4c(Cl)ccc5c4OCO5)ncnc3c2)CC1 [Saracatinib] | -4.63
CCOC(=O)[C@H](CCc1ccccc1)N[C@H]1CS[C@H](c2cccs2)CN(CC(=O)O)C1=O.Cl [Temocapril hydrochloride] | -6.28
c1nc2c(NC3CCCCC3)nc(Nc3ccc(N4CCOCC4)cc3)nc2[nH]1 [Reversine] | -4.63
COc1cc2c(cc1OC)CN(CCc1ccc(NC(=O)c3cc(OC)c(OC)cc3NC(=O)c3cnc4ccccc4c3)cc1)CC2 [Tariquidar] | -5.03
Cc1cn(-c2cc(NC(=O)c3ccc(C)c(Nc4nccc(-c5cccnc5)n4)c3)cc(C(F)(F)F)c2)cn1 [Nilotinib] | -5.18
CC/1=C/C(=O)N(O)/C(=C1)C2CCCCC2 [ciclopirox] | -4.73
C[C@]1(CO)CN(c2cc(C(=O)Nc3ccc4c(c3)-c3c(c(C(N)=O)nn3-c3ccc(F)cc3)CC4)c(Cl)cn2)C[C@@]1(C)CO [PF-184] | -5.43
CC(C)C[C@H](NC(=O)[C@@H](NC(=O)c1cccc(-c2ccccc2)n1)[C@@H](C)O)B(O)O [Delanzomib] | -7.38
CN1CCN(CC1)C2=CC3=C([NH]C(=N3)C/4=C(\N)C5=C(F)C=CC=C5NC4=O)C=C2 [Dovitinib] | -4.78
CCOc1ccccc1N/N=C1/C(=O)N(c2nc(-c3ccccc3)cs2)N=C1C [BAM7] | -5.48
O=C(NCCCNc1nc(Nc2cccc(NC(=O)N3CCCC3)c2)ncc1I)c1cccs1 [BX-795] | -4.83
CCCCc1oc2ccc(NS(C)(=O)=O)cc2c1C(=O)c1ccc(OCCCN(CCCC)CCCC)cc1 [Dronedarone] | -4.73
ClC1=CC=C(CCCOC/2=N/NC(=O)C(=C2NCC3=CN=CC=C3)/Br)C=C1 [Parogrelil] | -5.13
NC/1=N/C(=O)N(/C=N1)[C@@H]2O[C@H](CO)[C@@H](O)[C@H]2O [5-Azacitidine] | -4.88
O=C1CSC(=O)N1C(CCc1ccncc1)COc1ccc(-c2cccc([N+](=O)[O-])c2)cc1 (configuration not stated) | -5.88
COc1ccc(-c2ccc3cc(C(=O)O)ccc3c2)cc1C12CC3CC(CC(C3)C1)C2 [Adapalene] | -5.28

Compound | AC50 for growth inhibition (log10 M)
CCCCc1ccc(N[S+](=O)([O-])c2ccc(C)c(C(=O)N3CCN(c4cccc(C)c4C)CC3)c2)cc1 [IDH-001] | -4.83
C=C1/C(=C\C=C2/CCC[C@]3(C)[C@@H]([C@H](C)/C=C/[C@H](C)C(C)C)CC[C@@H]23)C[C@@H](O)C[C@@H]1O [Doxercalciferol] | -6.73
CO[C@H]1/C=C\C=C(\C)C(=O)NC2=CC(=O)C(NCCN(C)C)=C(C[C@@H](C)C[C@H](OC)[C@H](O)[C@@H](C)/C=C(/C)[C@@H]1OC(N)=O)C2=O [Alvespimycin hydrochloride] | -7.38
COc1ccc(/C=C\c2cc(OC)c(OC)c(OC)c2)cc1O [Combretastatin A-4] | -8.68
O=C(NCc1ccccc1)c1csc(Nc2ccncn2)n1 [Thiazovivin] | -4.78
OC1=C(C=CC=C1)C2=CC=C(C=C2)C3=CSC4=C3C(=C(/C#N)C(=O)N4)/O | -5.83
CNC(=O)c1nn(C)c2c1C(C)(C)Cc1cnc(Nc3ccc(N4CCN(C)CC4)cc3)nc1-2 [Milciclib] | -5.93
COc1c(C)c2c(c(O)c1C/C=C(\C)CCC(=O)O)C(=O)OC2 [Mycophenolic acid] | -5.48
CN(C)[S+](=O)([O-])c1ccc2c(c1)C(=Cc1cc3c([nH]1)CCCC3)C(=O)N2 [SU-6656] | -5.28
Nc1ncnc2c1ncn2[C@@H]1O[C@H](CO)[C@@H](O)[C@H]1O [Adenosine] | -6.08
CN(C)CCOc1ccc(/C(=C(/CCCl)c2ccccc2)c2ccccc2)cc1 [Toremifene] | -4.63
Cn1cc(CNCC2CCN(c3ncc(C(=O)NO)cn3)CC2)c2ccccc21 [Quisinostat hydrochloride] | -6.73
CCC(CCCC)COC(=O)C(\C#N)=C(\c1ccccc1)c2ccccc2 (configuration not stated) [Octocrylene] | -4.88
CN[C@@H]1C[C@H]2O[C@@](C)([C@@H]1OC)n1c3ccccc3c3c4c(c5c6ccccc6n2c5c31)C(=O)N[C@H]4O [7-Hydroxystaurosporine] | -6.28
COc1cc2c(Nc3ccc(Br)cc3F)ncnc2cc1OCC1CCN(C)CC1 [Vandetanib] | -4.68
CN1\C(=C(O)/C2=C(C=C(Cl)S2)[S+]1([O-])=O)C(=O)NC3=NC=CC=C3 [Lornoxicam] | -5.88
NC1(Cc2ccc(Cl)cc2)CCN(c2ncnc3[nH]ccc23)CC1 | -4.83
CC(C)C[C@H](NC(=O)CNC(=O)c1cc(Cl)ccc1Cl)B(O)O [Ixazomib] | -6.63
C[C@@H]\1COC(=N1)\NC2=CC3=C(C=C2)N=CN=C3NC4=CC(=C(OCC5=NC=CS5)C=C4)Cl [Varlitinib tosylate] | -6.63
CN(C)CCCN1c2ccccc2CCc2ccc(Cl)cc21 [Clomipramine hydrochloride] | -6.13
Cc1ccc([S+](=O)([O-])N[C@@H](Cc2ccccc2)C(=O)CCl)cc1 [TPCK] | -4.78
O=C(Nc1ccc(F)c(C(F)(F)F)c1)Nc1nnc(-c2ccncc2)s1 | -5.53
Cc1nc(NC(=O)N2CCC[C@H]2C(N)=O)sc1-c1csc(C(C)(C)C)n1 [A-66] | -5.38
COc1cc(Nc2ncc(F)c(Nc3ccc4c(n3)N(COP(=O)(O)O)C(=O)C(C)(C)O4)n2)cc(OC)c1OC [Fostamatinib disodium] | -5.33
COc1cc2nccc(Oc3ccc(NC(=O)NC4CC4)c(Cl)c3)c2cc1C(N)=O [Lenvatinib] | -6.38
COc1cc(C)c(Sc2cnc(NC(=O)c3ccc(CNC(C)C(C)C)cc3)s2)cc1C(=O)N1CCN(C(C)=O)CC1 (configuration not stated) [ITK inhibitor] | -4.78
